Data on eleven compounds can be found in ChEMBL document CHEMBL5352476, “A comprehensive overview of Artemisinin and its derivatives as anticancer agents” (Eur J Med Chem, 2023).

What is called IC50 is the concentration needed to halve the response being measured. In general, inhibition in vivo refers to the drop in the measured response relative to a control, in per cent.

Each structure is given as a SMILES string.

Series [1] can be described thus: Cytotoxicity against human CCD 19Lu cells assessed as inhibition of cell growth. Type of series: toxicity, cell-based.
The test system of the next series is Mus musculus. Briefly: Antitumor activity against human RL95-2 cells xenografted in BALB/c nude mouse assessed as tumor growth inhibition rate at 5.0 mg/kg, ip administered three times a week for 4 weeks relative to control. It is filed as functional. Particulars: RL95-2, 672 h. In general terms: Xenograft models place foreign cells or tissue in a host animal.

In the next series the test system is RL95-2. Briefly: Antiproliferative activity against human RL95-2 cells assessed as inhibition of cell growth by MTT assay. Type of series: functional, cell-based. Particulars: pooled result: one value given for 6 cell lines, strains, targets or settings. (Tetrazolium dyes change colour on reduction, which living cells bring about.)
A further series has as its system HepG2. Put plainly: Antiproliferative activity against human HepG2 cells assessed as inhibition of cell growth by MTT assay. Type of series: functional, cell-based.
For another series, the system named is HCT-116. Briefly: Antiproliferative activity against human HCT-116 cells assessed as inhibition of cell growth. It is filed as functional, cell-based.
In series [2] the test system is MDA-MB-231. Briefly: Antiproliferative activity against human MDA-MB-231 cells assessed as inhibition of cell growth. It is filed as functional, cell-based.
The next series deals with HeLa. Briefly: Antiproliferative activity against human HeLa cells assessed as inhibition of cell growth. It is filed as functional, cell-based.
A further series relates to SK-BR-3. Briefly: Antiproliferative activity against human SK-BR-3 cells assessed as inhibition of cell growth. It is filed as functional, cell-based.
For series [3], the system named is MDA-MB-231. Put plainly: Antiproliferative activity against human MDA-MB-231 cells assessed as inhibition of cell growth incubated for 72 hrs by MTT assay. It is filed as functional, cell-based. The following applies: MDA-MB-231, 72 h.
The test system of the next series is A549. Put plainly: Antiproliferative activity against human A549 cells assessed as inhibition of cell growth incubated for 72 hrs by MTT assay. It is filed as functional, cell-based. Particulars: A549, 72 h.
For another series, the system named is HL-60. Briefly: Antiproliferative activity against human HL-60 cells assessed as inhibition of cell growth incubated for 72 hrs by MTT assay. It is filed as functional, cell-based. The following applies: HL-60, 72 h.
Series [4] has as its system U-87 MG. Briefly: Antiproliferative activity against human U-87 MG cells assessed as inhibition of cell growth incubated for 72 hrs by MTT assay. It is filed as functional, cell-based, U-87MG ATCC.
Series [5] can be described thus: Cytotoxicity against human WI-38 cells assessed as inhibition of cell growth incubated for 72 hrs by MTT assay. Type of series: toxicity, cell-based.
For the next series, the system named is NCI-H460. Put plainly: Antiproliferative activity against human NCI-H460 cells assessed as inhibition of cell growth incubated for 72 hrs by MTT assay. It is filed as functional, cell-based. Particulars: NCI-H460, 72 h.
Another series relates to HT-29. Briefly: Antiproliferative activity against human HT-29 cells assessed as inhibition of cell growth incubated for 72 hrs by MTT assay. Particulars: HT-29, 72 h. It is filed as functional, cell-based.
For the next series, the system named is RPMI-7951. Briefly: Antiproliferative activity against human RPMI-7951 cells assessed as inhibition of cell growth incubated for 24 hrs by MTT assay. Type of series: functional, cell-based. Particulars: RPMI-7951, 24 h.
Series [6] deals with U-87 MG. Put plainly: Antiproliferative activity against human U87 cells assessed as inhibition of cell growth incubated for 72 hrs by MTT assay. Type of series: functional, cell-based, U-87MG ATCC.
The test system of series [7] is U-87 MG. Briefly: Antiproliferative activity against human U87 cells assessed as inhibition of cell growth incubated for 24 hrs by MTT assay. Type of series: functional, cell-based, U-87MG ATCC.

Consider `CCCCCCCCCCCCCCNC(=O)C[C@H]1O[C@@H]2O[C@@]3(C)CC[C@H]4[C@H](C)CC[C@@H]([C@H]1C)[C@@]24OO3`, for which, in [1], the IC50 stood at 0.46 µM.

Consider `C[C@H]1[C@@H](OCCNCCO[C@H]2O[C@@H]3O[C@@]4(C)CC[C@H]5[C@H](C)CC[C@@H]([C@H]2C)[C@@]35OO4)O[C@@H]2O[C@@]3(C)CC[C@H]4[C@H](C)CC[C@@H]1[C@@]24OO3`, for which the inhibition in vivo at 5 mg/kg with Mus musculus stood at 49.9%. In the series on RL95-2, the IC50 is 1.16 µM.

As for `CCCCCCCCCCCCNC(=O)C[C@H]1O[C@@H]2O[C@@]3(C)CC[C@H]4[C@H](C)CC[C@@H]([C@H]1C)[C@@]24OO3`, the IC50 in the series with HepG2 is 1.2 µM.

For the compound `C[C@H]1[C@@H](CCCOC(=O)NCCC[P+](c2ccccc2)(c2ccccc2)c2ccccc2)O[C@@H]2O[C@@]3(C)CC[C@H]4[C@H](C)CC[C@@H]1[C@@]24OO3`, the IC50 with HCT-116, with MDA-MB-231 [2], in the series with HeLa and in the series with SK-BR-3 was 0.82 µM throughout.

In the case of `C[C@@H]1CC[C@H]2[C@@H](C)C(OCCNC(=O)c3ccc(COc4ccc(/C=C/S(=O)(=O)Nc5ccc(OC(F)(F)F)cc5)cc4)cc3)O[C@@H]3O[C@@]4(C)CC[C@@H]1[C@]32OO4` (stereo partly drawn), the IC50 with MDA-MB-231 [3], with A549, in the series with HL-60, in the series on U-87 MG [4], in the series on NCI-H460 and with HT-29 was 0.09 µM in each case. Moreover, the 50% inhibitory concentration (IC50) at 72 h in series [5] came to 0.09 µM.

In the case of `COC(=O)C(Cc1ccc(OC(=O)CCC(=O)O[C@@H]2O[C@@H]3O[C@@]4(C)CC[C@H]5[C@H](C)CC[C@@H]([C@H]2C)[C@@]35OO4)cc1)NC(=O)CCC(=O)O[C@@H]1O[C@@H]2O[C@@]3(C)CC[C@H]4[C@H](C)CC[C@@H]([C@H]1C)[C@@]24OO3` (stereo partly drawn), the concentration for half-maximal inhibition (IC50) with RPMI-7951 came to 1.76 µM.

Consider `CCCCCCCCCCCC[C@@H](O)C[C@H]1O[C@@H]2O[C@@]3(C)CC[C@H]4[C@H](C)CC[C@@H]([C@H]1C)[C@@]24OO3`, for which the half-inhibitory concentration (IC50) in the series on HepG2 stood at 4.4 µM.

As to `C[C@@H]1CC[C@H]2[C@@H](C)C(OCCOc3ccc(/C=C/S(=O)(=O)Nc4ccc(OC(F)(F)F)cc4)cc3)O[C@@H]3O[C@@]4(C)CC[C@@H]1[C@]32OO4` (stereo partly drawn), the IC50 in the series on MDA-MB-231 [3], with A549, in the series with HL-60, in the series on U-87 MG [4], in the series on NCI-H460 and in the series with HT-29 was 0.05 µM in each case. In addition, the concentration for half-maximal inhibition (IC50) at 72 h in series [5] amounted to 0.05 µM.

In the case of `C[C@H]1[C@H](OC(=O)CCC(=O)OCc2ccc(OC(=O)CCC(=O)O[C@@H]3O[C@@H]4O[C@@]5(C)CC[C@H]6[C@H](C)CC[C@@H]([C@H]3C)[C@@]46OO5)cc2)O[C@@H]2O[C@@]3(C)CC[C@H]4[C@H](C)CC[C@@H]1[C@@]24OO3`, in the series with RPMI-7951, the IC50 amounted to 0.05 µM.

As for `CCCCCCCCCCCC[C@H](O)C[C@H]1O[C@@H]2O[C@@]3(C)CC[C@H]4[C@H](C)CC[C@@H]([C@H]1C)[C@@]24OO3`, the IC50 with HepG2 worked out at 2.8 µM.

Take `C[C@H]1[C@@H](OCCCN=C=S)O[C@@H]2O[C@@]3(C)CC[C@H]4[C@H](C)CC[C@@H]1[C@@]24OO3`: the half-inhibitory concentration (IC50) was found to be 7.35 µM in the series on U-87 MG [6] and 7.41 µM in the series with U-87 MG [7].
